Laboratory results reported in patent US9290691B2, “Organic el material-containing solution, method for forming organic el thin film, organic el device comprising organic el thin film, and method for manufacturing organic el display panel” (IDEMITSU KOSAN CO., LTD., priority 2007, dated 2016).

Assay: Solubility Evaluation 1: anthracene compounds in various solvents, visual check
Type: physicochemical
Set-up: key to Solubility in Cyclohexanone / Solubility in Toluene / Solubility in Xylene / Solubility in Tetralin / Solubility in Dodecylbenzene / Solubility in Anisole / Solubility in Dioxane / Solubility in Butyl Acetate / Solubility in Methylethylketone / Solubility in N-methylpyrolidone: A: it was confirmed that the compounds were dissolved in the dropped solvents; C: the compounds were not completely dissolved and undissolved residues remained
Settings: 30 mg compound, 1 g solvent, visual check
Protocol: (§1) 30 mg of each of anthracene compounds 1 to 14 represented by the following formulae was put into a sample bottle, and 1 g of each of various solvents was dropped into the bottle with agitation. By visual check, a case where it was confirmed that the compounds were dissolved in the dropped solvents is marked as A and a case where the compounds were not completely dissolved and undissolved residues remained is marked as C.

Structure (SMILES) | Solubility in Anisole | Solubility in Butyl Acetate | Solubility in Cyclohexanone | Solubility in Dioxane | Solubility in Dodecylbenzene | Solubility in Methylethylketone | Solubility in N-methylpyrolidone | Solubility in Tetralin | Solubility in Toluene | Solubility in Xylene
c1ccc2cc(-c3c4ccccc4c(-c4ccc(-c5cccc6ccccc56)cc4)c4ccccc34)ccc2c1 [Compound 1] | C | C | A | A | C | C | A | C | A | A
c1ccc(-c2cc(-c3ccc4ccccc4c3)cc(-c3c4ccccc4c(-c4ccc5ccccc5c4)c4ccccc34)c2)cc1 [Compound 2] | C | C | A | A | C | C | A | C | A | A
c1ccc(-c2ccc3cc(-c4cccc(-c5c6ccccc6c(-c6ccc(-c7cccc8ccccc78)cc6)c6ccccc56)c4)ccc3c2)cc1 [Compound 3] | C | C | A | A | C | C | A | C | A | A
c1cc(-c2ccc3ccccc3c2)cc(-c2c3ccccc3c(-c3ccc4cc(-c5ccc6ccccc6c5)ccc4c3)c3ccccc23)c1 [Compound 4] | C | C | A | C | C | C | A | C | C | C
c1ccc(-c2ccc3ccc(-c4c5ccccc5c(-c5cccc(-c6ccc7ccccc7c6)c5)c5ccccc45)cc3c2)cc1 [Compound 5] | C | C | A | C | C | C | A | C | C | C
c1cc(-c2ccc3ccccc3c2)cc(-c2c3ccccc3c(-c3cccc4ccccc34)c3ccccc23)c1 [Compound 6] | C | C | A | C | C | C | A | C | C | C
c1ccc2cc(-c3ccc(-c4c5ccccc5c(-c5ccc(-c6cccc7ccccc67)cc5)c5ccccc45)cc3)ccc2c1 [Compound 7] | C | C | A | A | C | C | A | C | A | A
c1ccc(-c2ccc3cc(-c4cccc(-c5c6ccccc6c(-c6ccc7ccccc7c6)c6ccccc56)c4)ccc3c2)cc1 [Compound 8] | C | C | A | C | C | C | A | C | C | C
c1ccc2cc(-c3ccc(-c4ccc(-c5c6ccccc6c(-c6ccc7ccccc7c6)c6ccccc56)cc4)c4ccccc34)ccc2c1 [Compound 9] | C | C | A | C | C | C | A | C | C | C
c1cc(-c2ccc3ccccc3c2)cc(-c2c3ccccc3c(-c3ccc4ccccc4c3)c3ccccc23)c1 [Compound 10] | C | C | A | C | C | C | A | C | A | A
c1ccc2cc(-c3c4ccccc4c(-c4ccc5ccccc5c4)c4ccccc34)ccc2c1 [Compound 11] | C | C | C | C | C | C | C | C | C | C
c1ccc(-c2c3ccccc3c(-c3cccc(-c4cccc(-c5c6ccccc6c(-c6ccccc6)c6ccccc56)c4)c3)c3ccccc23)cc1 [Compound 12] | C | C | C | C | C | C | C | C | C | C
c1ccc(-c2ccc(-c3c4ccccc4c(-c4ccc(-c5ccccc5)cc4)c4ccccc34)cc2)cc1 [Compound 13] | C | C | C | C | C | C | C | C | C | C
c1ccc(-c2ccc(-c3ccccc3-c3c4ccccc4c(-c4c5ccccc5c(-c5ccccc5-c5ccc(-c6ccccc6)cc5)c5ccccc45)c4ccccc34)cc2)cc1 [Compound 14] | C | C | A | A | C | C | A | C | A | C

Same assay, conditions: cyclohexanone

Structure (SMILES) | dissolution in cyclohexanone (in words)
c1cc(-c2ccc3ccccc3c2)cc(-c2c3ccccc3c(-c3ccc4cc(-c5ccc6ccccc6c5)ccc4c3)c3ccccc23)c1 [Compound 4] | dissolved

Same assay, conditions: toluene

Structure (SMILES) | dissolution in toluene (in words)
c1cc(-c2ccc3ccccc3c2)cc(-c2c3ccccc3c(-c3ccc4cc(-c5ccc6ccccc6c5)ccc4c3)c3ccccc23)c1 [Compound 4] | not dissolved

Assay: Solubility Evaluation 2: naphthacene compounds in various solvents, visual check
Type: physicochemical
Set-up: key: A: it was confirmed that the compounds were dissolved in the dropped solvents; C: the compounds were not completely dissolved and undissolved residues remained
Settings: 30 mg compound, 1 g solvent
Protocol: as §1
Next, naphthacene compounds 15 and 16 were used in place of the anthracene compounds, and the solubility was evaluated in the same manner as the above. Same as in Solubility Evaluation 1, by visual check, a case where it was confirmed that the compounds were dissolved in the dropped solvents is marked as A and a case where the compounds were not completely dissolved and undissolved residues remained is marked as C. Moreover, a case where precipitation was observed after several hours of dissolution is marked as B. Result of solubility evaluation will be shown in Table 3 below.

Structure (SMILES) | Solubility in Cycloheptanone | Solubility in Cyclohexanone | Solubility in N-methylpyrolidone | Solubility in Toluene | Solubility in Xylene
c1ccc(-c2cc(-c3ccccc3)c(-c3c4ccccc4c(-c4ccccc4)c4cc5ccccc5cc34)c(-c3ccccc3)c2)cc1 [Compound 16] | A | A | A | C | C
